Results reported in patent US10329283B2, “G protein-coupled receptor kinase inhibitors and methods for use of the same” (THE REGENTS OF THE UNIVERSITY OF MICHIGAN, priority 2015, dated 2019).
Counter-ions that a name gives are not always drawn.

Assays:
GRK1 = biological target: T1, GRK1 (Bos taurus, UniProt P28327); experiment: GRK1 kinetic assay for inhibition of GRKs (phosphorimaging); format: biochemical; conditions: 50 nM GRK, 5 μM ATP, 500 nM bROS or tubulin, 5 min
T1 sequence (P28327 1-535 limits assumed): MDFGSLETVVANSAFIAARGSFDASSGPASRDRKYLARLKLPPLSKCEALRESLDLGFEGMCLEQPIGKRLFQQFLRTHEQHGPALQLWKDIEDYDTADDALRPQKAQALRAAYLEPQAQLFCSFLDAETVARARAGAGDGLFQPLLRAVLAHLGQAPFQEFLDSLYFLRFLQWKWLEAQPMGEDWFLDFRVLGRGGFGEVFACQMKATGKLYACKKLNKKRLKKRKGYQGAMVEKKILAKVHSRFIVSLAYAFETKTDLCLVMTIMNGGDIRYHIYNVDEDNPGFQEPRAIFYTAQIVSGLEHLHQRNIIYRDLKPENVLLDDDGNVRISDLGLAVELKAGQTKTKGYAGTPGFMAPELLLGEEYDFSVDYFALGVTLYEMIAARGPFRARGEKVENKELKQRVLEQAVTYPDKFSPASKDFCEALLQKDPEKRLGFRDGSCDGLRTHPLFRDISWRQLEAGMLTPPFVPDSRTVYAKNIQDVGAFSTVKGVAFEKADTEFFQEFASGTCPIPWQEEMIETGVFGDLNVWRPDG
Procedure: (§1) The low salt concentration and DDM were used to maximize GRK activity and disrupt small molecule aggregates from forming, respectively. […] Data was analyzed and inhibition curves were fit via GraphPad Prism.

GRK2 [1] = biological target: T2, GRK2 (Homo sapiens, UniProt P25098); experiment: GRK2 kinetic assay for inhibition of GRKs (phosphorimaging); format: biochemical; conditions: 50 nM GRK, 5 μM ATP, 500 nM bROS or tubulin, 5 min
T2 sequence (P25098 1-689): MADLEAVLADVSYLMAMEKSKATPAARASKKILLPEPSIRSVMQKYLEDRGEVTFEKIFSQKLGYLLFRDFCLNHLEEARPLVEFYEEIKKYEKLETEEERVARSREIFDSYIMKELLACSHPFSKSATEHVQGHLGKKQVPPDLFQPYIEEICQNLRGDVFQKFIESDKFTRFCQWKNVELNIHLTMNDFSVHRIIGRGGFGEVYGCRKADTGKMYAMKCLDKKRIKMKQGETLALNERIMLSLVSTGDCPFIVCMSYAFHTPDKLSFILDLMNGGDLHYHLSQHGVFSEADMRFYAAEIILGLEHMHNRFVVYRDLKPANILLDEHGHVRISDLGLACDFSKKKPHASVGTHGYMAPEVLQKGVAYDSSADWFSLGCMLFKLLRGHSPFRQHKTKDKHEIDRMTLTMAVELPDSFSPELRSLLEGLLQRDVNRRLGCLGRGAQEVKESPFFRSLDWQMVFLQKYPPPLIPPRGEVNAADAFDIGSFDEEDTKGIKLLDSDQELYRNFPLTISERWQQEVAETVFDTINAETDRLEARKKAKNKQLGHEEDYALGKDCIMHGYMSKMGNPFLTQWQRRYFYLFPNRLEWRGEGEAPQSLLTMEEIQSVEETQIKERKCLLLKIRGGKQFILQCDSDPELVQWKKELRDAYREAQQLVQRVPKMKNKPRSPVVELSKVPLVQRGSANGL
Procedure: as §1

GRK5 = GRK5 (Homo sapiens, UniProt P34947); experiment: GRK5 kinetic assay for inhibition of GRKs (phosphorimaging); format: biochemical; conditions: 50 nM GRK, 5 μM ATP, 500 nM bROS or tubulin, 5 min
GRK5, sequence (P34947 whole entry, species assumed): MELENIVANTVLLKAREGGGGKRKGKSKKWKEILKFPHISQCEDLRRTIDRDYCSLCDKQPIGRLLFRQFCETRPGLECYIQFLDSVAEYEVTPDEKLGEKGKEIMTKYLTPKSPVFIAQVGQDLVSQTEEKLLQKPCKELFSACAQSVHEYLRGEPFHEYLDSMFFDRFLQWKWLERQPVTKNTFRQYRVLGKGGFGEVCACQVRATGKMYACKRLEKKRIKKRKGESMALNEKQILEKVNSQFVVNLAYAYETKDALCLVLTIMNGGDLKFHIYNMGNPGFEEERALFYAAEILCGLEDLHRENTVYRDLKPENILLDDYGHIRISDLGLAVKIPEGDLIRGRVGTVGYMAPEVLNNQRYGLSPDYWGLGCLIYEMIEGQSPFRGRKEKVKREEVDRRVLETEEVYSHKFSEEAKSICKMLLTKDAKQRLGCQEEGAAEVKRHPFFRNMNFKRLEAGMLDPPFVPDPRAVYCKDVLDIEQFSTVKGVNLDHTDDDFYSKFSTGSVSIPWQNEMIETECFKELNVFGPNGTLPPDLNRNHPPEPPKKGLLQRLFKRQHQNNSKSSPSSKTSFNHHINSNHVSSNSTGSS
Procedure: as §1

[2] = in words; Thal et al., Mol Pharmacol 2011; cited from earlier work
GRK2 [3] = biological target: T2, GRK2; conditions: in words; Setyawan et al. 1999, Tesmer et al. 2010; cited from earlier work

SMILES	IC50 (GRK1) [µM]	IC50 (GRK2 [1]) [µM]	IC50 (GRK5) [µM]	bioavailability [2]	inhibition of GRK2 (GRK2 [3])
O=C(NCc1c(C(F)(F)F)cccc1C(F)(F)F)c1cc([C@@H]2CCNC[C@H]2COc2ccc3c(c2)OCO3)ccc1F [Example E14, 5-((3S,4R)-3-((benzo[d][1,3]dioxol-5-yloxy)methyl)piperidin-4-yl)-N-(2,6-bis(trifluoromethyl)benzyl)-2-fluorobenzamide hydrochloride]	23.6	0.77	41.1	–	–
COc1cccc(OC)c1CNC(=O)c1cc([C@@H]2CCNC[C@H]2COc2ccc3c(c2)OCO3)ccc1F [Example E15, 5-((3S,4R)-3-((benzo[d][1,3]dioxol-5-yloxy)methyl)piperidin-4-yl)-N-(2,6-dimethoxybenzyl)-2-fluorobenzamide hydrochloride]	22	1.39	> 100	–	–
O=C(NCc1c(Cl)cccc1Cl)c1cc([C@@H]2CCNC[C@H]2COc2ccc3c(c2)OCO3)ccc1F [Example E16, 5-((3S,4R)-3-((benzo[d][1,3]dioxol-5-yloxy)methyl)piperidin-4-yl)-N-(2,6-dichlorobenzyl)-2-fluorobenzamide hydrochloride]	16.6	1.21	33.6	–	–
Fc1ccc([C@@H]2CCNC[C@H]2COc2ccc3[nH]ncc3c2)cc1 [Example E18, 5-(((3S,4R)-4-(4-fluorophenyl)piperidin-3-yl)methoxy)-1H-indazole]	65.7	0.07	12.8	–	–
Fc1ccc([C@@H]2CCNC[C@H]2COc2cc3cn[nH]c3cc2F)cc1 [Example E30, 6-fluoro-5-(((3S,4R)-4-(4-fluorophenyl)piperidin-3-yl)methoxy)-1H-indazole]	3.67	0.14	0.82	–	–
COc1cccc(OC)c1CNC(=O)c1cc([C@@H]2CCNC[C@H]2COc2cc3cn[nH]c3cc2F)ccc1F [Example E31, N-(2,6-dimethoxybenzyl)-2-fluoro-5-((3S,4R)-3-(((6-fluoro-1H-indazol-5-yl)oxy)methyl)piperidin-4-yl)benzamide]	40.1	0.4	8.12	–	–
CN1CC[C@@H](c2ccc(F)cc2)[C@H](COc2ccc3[nH]ncc3c2)C1 [Example E32, 5-(((3S,4R)-4-(4-fluorophenyl)-1-methylpiperidin-3-yl)methoxy)-1H-indazole]	51.8	0.29	33	–	–
CCCn1c(CNc2cccc(C(=O)NCc3c(F)cccc3F)c2)nnc1-c1ccncn1 [Takeda103A]	–	–	–	poor bioavailability	–
O=C(N[C@@H]1CNCCC[C@H]1OC(=O)c1cc(O)c(C(=O)c2c(O)cccc2C(=O)O)c(O)c1)c1ccc(O)cc1 [balanol]	–	–	–	–	low nanomolar range
